Reference: PMC10708960 (Computational and Structural Biotechnology Journal, 2023)

Legend:
[1] = system: c-Met F1200I mutant; settings: Fig. S10; cited from earlier work
[2] = system: c-Met mutations of L1195 and F1200; settings: type I inhibitors; Fig. S10; cited from earlier work
[3] = system: c-Met mutations of D1228 and Y1230; settings: cited from earlier work; for affinity against mutations of D1228 and Y1230: type I inhibitors, Fig. S10
[4] = system: c-Met; settings: no reference given; cited from earlier work
[5] = biological target: c-Src (Gallus gallus, UniProt P00523); assay: biochemical; design: species or system Chicken

Structure (SMILES) | activity against mutations of L1195 and F1200 [2] | affinity against mutations of D1228 and Y1230 [3] | other results
C[C@@H](Oc1cc(-c2cnn(C3CCNCC3)c2)cnc1N)c1c(Cl)ccc(F)c1Cl [crizotinib] | – | – | potency for the F1200I mutant [1]: 50 to 200 nM
CNC(=O)c1ccc(-c2cnc3ncc(Cc4ccc5ncccc5c4)n3n2)cc1F [capmatinib] | potent activity | low affinity | –
C[C@H]1CNC(=O)c2cnn3ccc(nc23)N[C@H](C)c2cc(F)ccc2O1 [TPX-0005] | – | – | affinity for c-Met [4]: low affinity
COc1cc2nccc(Oc3ccc(NC(=O)C4(C(=O)Nc5ccc(F)cc5)CC4)cc3)c2cc1OC [cabozantinib] | – | – | ability to overcome mutations of D1228 and Y1230 ([3]; type II inhibitor): could overcome
CCN1Cc2c(ccc(F)c2C#N)O[C@@H](C)CNC(=O)c2c(N)nn3ccc1nc23 [TPX-0022] | – | – | IC50 [5]: 3.7 nM
C[C@@H](c1ccc2nccn2c1)n1nnc2ncc(-c3cnn(C)c3)nc21 [savolitinib] | potent activity | low affinity | –
CN1CCC(COc2cnc(-c3cccc(Cn4nc(-c5cccc(C#N)c5)ccc4=O)c3)nc2)CC1 [tepotinib] | potent activity | low affinity | –
